Several values for one entry are separate records, joined by “and”; a condition that tells them apart may be missing. Equal entries are not always repeated.
Experiments:
NP2-WT DRG neurons = test: GCaMP6s calcium imaging of cultured NP2-WT DRG neurons; assay type: cell-based, mouse; conditions: 10 μM phospho-drugs; 1 mM CQ
Text: Fig. 2. Phosphate monoester prodrugs induce itch in NP2-MRGPRX4+ mice through activating NP2 primary sensory neurons. (A) Mating strategy to generate NP2-X4+ mice. (B) In situ hybridization showing MRGPRX4 transcripts (magenta) in NP2-X4+ DRG as indicated by arrowheads (left) but not in littermate control NP2-WT (right). NP2 subpopulation accounts for 5% of total DRG neurons. DAPI, blue. Scale bar, 50 μm. […]. Data are expressed as mean ± SEM. *p< 0.05, **p< 0.01 and ***p< 0.001 by two-tailed unpaired Student’s t-test. ns = no statistical significance observed. (D and E) Traces of average (top, depicted as mean ± 95% confidence interval) and individual (bottom, reflected by the heatmap) calcium activity, measured by fluorescence intensity normalized to the baseline intensity (FT/F0) over time of NP2-X4+ (D) and NP2-WT (E) DRG neurons labelled with GCaMP6s (n = 110–150 neurons pooled from 3–7 independent culture vessels from 2–4 mice in each condition). 10 μM phospho-drugs and 1 mM CQ were added as indicated by the arrowheads. […]
(§1) Calcium imaging data was collected with a Nikon Eclipse TE 200 microscope. Time series GCaMP6 fluorescence intensity was acquired through the FITC/GFP channel. […] Neurons with GCaMP6 signal rose above 50% of the baseline intensity after compound application were counted as positive responders and the percentage of responding neurons was calculated. […]

NP2-X4+ DRG neurons = test: GCaMP6s calcium imaging of cultured NP2-X4+ DRG neurons; assay type: cell-based, mouse; conditions: 10 μM phospho-drugs; 1 mM CQ
Text: Fig. 2. Phosphate monoester prodrugs induce itch in NP2-MRGPRX4+ mice through activating NP2 primary sensory neurons. (A) Mating strategy to generate NP2-X4+ mice. (B) In situ hybridization showing MRGPRX4 transcripts (magenta) in NP2-X4+ DRG as indicated by arrowheads (left) but not in littermate control NP2-WT (right). NP2 subpopulation accounts for 5% of total DRG neurons. DAPI, blue. Scale bar, 50 μm. […]. Data are expressed as mean ± SEM. *p< 0.05, **p< 0.01 and ***p< 0.001 by two-tailed unpaired Student’s t-test. ns = no statistical significance observed. (D and E) Traces of average (top, depicted as mean ± 95% confidence interval) and individual (bottom, reflected by the heatmap) calcium activity, measured by fluorescence intensity normalized to the baseline intensity (FT/F0) over time of NP2-X4+ (D) and NP2-WT (E) DRG neurons labelled with GCaMP6s (n = 110–150 neurons pooled from 3–7 independent culture vessels from 2–4 mice in each condition). 10 μM phospho-drugs and 1 mM CQ were added as indicated by the arrowheads. Neurons with FT/F0 > 1.5 after compound application were considered a positive responder. NP2-X4+: NP2-MRGPRX4+; DRG, dorsal root ganglia; CQ: chloroquine.
The procedures were performed following previously established protocols ([15]). Murine DRGs (from both male and female) were harvested from all spinal segments and digested in dispase (5 mg/ml) / type I collagenase (1 mg/ml) enzyme mix at 37 °C for an hour. Enzyme mix was replaced with complete DH10 media (90% DMEM/F12, 10% FBS, penicillin (100 units/ml), and streptomycin (100 μg/ml)) and gently triturated with 1 ml pipette tip until the media turned cloudy without visible tissue chunks. Dissociated tissues were filtered through a 70 μm filter and spun down 1250 rpm for 5 min at RT. Supernatant was removed and the cell pellet was resuspended in complete DH10 media. Cell suspension was then added on top of poly-D-lysine- and laminin-coated coverslips and sat for 1–2 h at 37°C. Complete DH10 media supplemented with NGF (50 ng/ml) was then added into the vessel. Neurons were allowed to recover overnight at 37°C for the next-day calcium imaging experiment.
as §1, with “channel. Before the imaging, cultured neurons were washed and equilibrated in CIB for 30 min at 37°C. In each trial, compounds (as indicated in the results) were added into the imaging chamber after a 30 s baseline GCaMP6 activity was collected.” for “channel.”

[1] = tested on: NP2-X4+ mice (MRGPRX4 in Mrgpra3+ NP2 sensory neurons); test: Itch behavioral study (scratching bouts after subcutaneous nape injection) in NP2-X4+ mice; assay type: in vivo, mouse; conditions: for Scratching bouts of individual animals: NP2-X4+, 30 min after injection of 50 μl 10 mM into the nape, each cell one mouse
MRGPRX4 (S83) = target: T1, MRGPRX4 (S83) (Homo sapiens, UniProt Q96LA9, L83S); test: EC50 determination, intracellular calcium mobilization in MRGPRX4 stably expressed HEK293 cells (FLIPR Calcium 5, Flexstation-3); assay type: cell-based; set-up: Fig. 1D dose-response, calcium mobilization response (individual replicate) / calcium mobilization response (Fig. 1D dose-response raw data): unit not given here
T1 construct: expressed in transfected cells
T1 sequence (Q96LA9 whole entry L83S): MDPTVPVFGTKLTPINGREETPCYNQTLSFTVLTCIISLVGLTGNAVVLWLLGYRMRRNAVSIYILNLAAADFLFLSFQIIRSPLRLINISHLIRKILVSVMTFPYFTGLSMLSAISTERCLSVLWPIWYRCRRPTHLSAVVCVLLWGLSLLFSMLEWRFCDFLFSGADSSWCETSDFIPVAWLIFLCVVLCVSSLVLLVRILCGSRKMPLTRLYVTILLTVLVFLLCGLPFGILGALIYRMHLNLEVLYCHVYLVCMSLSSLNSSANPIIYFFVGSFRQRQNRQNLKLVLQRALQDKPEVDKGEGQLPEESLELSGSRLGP
In short: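 EC50 came from a four-parameter logistic fit to averaged triplicate responses, each response being maximum post-stimulation signal less baseline. Intracellular calcium was monitored with Calcium 5 dye in HBSS with 20 mM HEPES, pH 7.4, after 1 h dye loading at 37 °C, using stably transfected HEK293 cells and parental controls.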

NP2-WT mice = test: Itch behavioral study (scratching bouts after subcutaneous nape injection) in littermate control NP2-WT mice; assay type: in vivo; conditions: 30 min after injection of 50 μl 10 mM into the nape, each cell one mouse
Text: Fig. 2. Phosphate monoester prodrugs induce itch in NP2-MRGPRX4+ mice through activating NP2 primary sensory neurons. (A) Mating strategy to generate NP2-X4+ mice. (B) In situ hybridization showing MRGPRX4 transcripts (magenta) in NP2-X4+ DRG as indicated by arrowheads (left) but not in littermate control NP2-WT (right). NP2 subpopulation accounts for 5% of total DRG neurons. DAPI, blue. Scale bar, 50 μm. […] . Data are expressed as mean ± SEM. *p< 0.05, **p< 0.01 and ***p< 0.001 by two-tailed unpaired Student’s t-test. ns = no statistical significance observed. (D and E) Traces of average (top, depicted as mean ± 95% confidence interval) and individual (bottom, reflected by the heatmap) calcium activity, measured by fluorescence intensity normalized to the baseline intensity (FT/F0) over time of NP2-X4+ (D) and NP2-WT (E) DRG neurons labelled with GCaMP6s (n = 110–150 neurons pooled from 3–7 independent culture vessels from 2–4 mice in each condition). 10 μM phospho-drugs and 1 mM CQ were added as indicated by the arrowheads. Neurons with FT/F0 > 1.5 after compound application were considered a positive responder. NP2-X4+: NP2-MRGPRX4+; DRG, dorsal root ganglia; CQ: chloroquine.
. All the animals used were heterozygous unless otherwise specified. NP2-X4+ and NP2-WT littermates were generated by crossing Mrgpra3-Cre to Rosa26-lsl-MRGPRX4 as detailed previously ([15]). NP2-X4+ mice were further crossed to homozygous Rosa26-lsl-GCaMP6s to obtain NP2-WT/GCaMP6s and NP2-X4+/GCaMP6s animals. A detailed mating strategy is illustrated in fig. S5. Pirt-Cre-GCaMP6s animals were acquired by crossing Pirt-Cre to homozygous Rosa26-lsl-GCaMP6s. Pirt-Cre animals were generated through homologous recombination as indicated previously ([37]). Rosa26-lsl-GCaMP6s mouse line was provided by Dr. Dwight Bergles’ lab at the Johns Hopkins School of Medicine.

[2] = vs dexamethasone; cited from earlier work
HTLA cells = test: PRESTO-Tango β-arrestin recruitment assay, parental HTLA cells without MRGPRX4 (control, fig. S1); assay type: cell-based
Text: Supplement NIHMS2038790-supplement-table.xlsx, sheet "fig. S1" | column: Concentration (M)

WT mice = test: Itch behavioral study in WT mice across concentrations (fig. S4)
Procedure: Experimenters and subjects scoring the recorded videos were both blind to the mouse genotype and tested compounds. Behavioral tests comparing NP2-WT and NP2-X4+ scratching behavior were 6–12weeks old littermates including both genders. In brief, on the day preceding the experiment, animals were acclimated to the test chamber for at least 30 min and the experimenters performed mock injections 1–2 times in between. On the day of experiments, animals were habituated in test chambers for 10 min before receiving subcutaneous injection of 50ul compounds. Videos were recorded for 30 min after the injection. A bout of scratching was defined as a sustained scratching movement initiated by hindpaws toward the injection site (until the pause of the movement / withdrawal of the hindpaw). Scratching bouts were quantified within the 30 min record sessions.

CCN(CC)CCCC(C)Nc1ccnc2cc(Cl)ccc12 (centres unmarked) [Chloroquine]
Calcium response of NP2-WT neurons (NP2-WT DRG neurons): responded
Calcium response of NP2-X4+ neurons (NP2-X4+ DRG neurons): responded

CC(=O)OCC(=O)[C@@]1(O)[C@H](C)C[C@H]2[C@@H]3CCC4=CC(=O)C=C[C@]4(C)[C@@]3(F)[C@@H](O)C[C@@]21C [Dexamethasone acetate]
Itch in both NP2-X4+ and littermate WT controls ([1]; 50 μl 10 mM nape injection): slightly elevated itch
Scratching / itch behavior, NP2-X4+ mice vs WT littermates ([1]; 50 μl 10 mM nape injection, 30 min): no differences in itch behavior were detected
Scratching bouts of individual animals [1]: 0 and 26 and 59 and 22 and 2 and 3 and 9 (2×) and 20
Fig. 1D dose-response, calcium mobilization response (individual replicate) (MRGPRX4 (S83); Concentration 9.76563e-7 M): -48.502 and -46.356 and -48.988 and -43.676 and -48.158 and -43.385 and -85.123 and -4.652 and -42.229
Fig. 1D dose-response, calcium mobilization response (individual replicate) (MRGPRX4 (S83); Concentration 1.95313e-6 M): -22.164 and -36.691 and -35.570 and -37.729 and -34.474 and -34.794 and -19.078 and -53.999 and -20.889
Fig. 1D dose-response, calcium mobilization response (individual replicate) (MRGPRX4 (S83); Concentration 3.90625e-6 M): -39.055 and -53.135 and -70.767 and -48.544 and -36.360 and -36.045 and -91.099 and -38.430 and -1.751
Fig. 1D dose-response, calcium mobilization response (individual replicate) (MRGPRX4 (S83); Concentration 7.8125e-6 M): -33.331 and -71.560 and -49.660 and -45.756 and -42.005 and -31.885 and -29.162 and -70.876 and -31.653
Fig. 1D dose-response, calcium mobilization response (individual replicate) (MRGPRX4 (S83); Concentration 1.5625e-5 M): -37.387 and -60.340 and -52.439 and -33.449 and -38.008 and -34.728 and -69.819 and -42.708 and -12.221
Fig. 1D dose-response, calcium mobilization response (individual replicate) (MRGPRX4 (S83); Concentration 3.125e-5 M): -47.434 and -56.549 and -63.778 and -43.258 and -41.889 and -38.256 and -62.786 and -46.904 and -33.452
Fig. 1D dose-response, calcium mobilization response (individual replicate) (MRGPRX4 (S83); Concentration 6.25e-5 M): -61.858 and -50.883 and -76.723 and -47.363 and -44.877 and -37.522 and -10.190 and -37.194 and -110.631
Fig. 1D dose-response, calcium mobilization response (individual replicate) (MRGPRX4 (S83); Concentration 0.00025 M): -64.043 and -50.303 and -56.027 and -44.560 and -42.575 and -45.473 and -89.145 and -53.447 and -8.636
Fig. 1D dose-response, calcium mobilization response (individual replicate) (MRGPRX4 (S83); Concentration 0.0005 M): -48.359 and -6.029 and -35.851 and -38.822 and -45.234 and -19.021 and -30.402 and -28.831 and -36.978
Fig. 1D dose-response, calcium mobilization response (individual replicate) (MRGPRX4 (S83); Concentration 0.001 M): -37.786 and -38.347 and -50.572 and -37.033 and -22.575 and -15.877 and -9.453 and -18.673 and -62.758
Scratching bouts of individual animals (NP2-WT mice): 20 and 31 and 30 and 18 and 14 and 9 and 75 and 34 and 3

C[C@@H]1C[C@H]2[C@@H]3CCC4=CC(=O)C=C[C@]4(C)[C@@]3(F)[C@@H](O)C[C@]2(C)[C@@]1(O)C(=O)COP(=O)(O)O [Dexamethasone phosphate]
Scratching bouts of individual animals [1]: 19 and 29 and 40 and 22 and 17 and 35 and 2 and 71 and 63 and 41
Enhancement of aqueous solubility [2]: more than 500 fold
PRESTO-Tango response (fig. S1), single replicate (HTLA cells; concentration 4.88e-7 M): 0.002254 and 0.004793 and 0.008408 and 0.006888 and 0.003935 and 0.001659
PRESTO-Tango response (fig. S1), single replicate (HTLA cells; concentration 9.77e-7 M): 0.004343 and 0.01198 and 0.02598 and 0.007642 and 0.02244 and 0.00537
PRESTO-Tango response (fig. S1), single replicate (HTLA cells; concentration 1.95e-6 M): 0.003939 and 0.005577 and 0.007884 and 0.006351 and 0.008709 and 0.001173
PRESTO-Tango response (fig. S1), single replicate (HTLA cells; concentration 3.91e-6 M): 0.006644 and 0.008139 and 0.007744 and 0.01012 and 0.008517 and 0.007795
PRESTO-Tango response (fig. S1), single replicate (HTLA cells; concentration 7.81e-6 M): 0.008709 and 0.01255 and 0.009916 and 0.01429 and 0.003964 and 0.009591
PRESTO-Tango response (fig. S1), single replicate (HTLA cells; concentration 1.56e-5 M): 0.01013 and 0.0155 and 0.008817 and 0.01021 and 0.0162 and 0.001357
PRESTO-Tango response (fig. S1), single replicate (HTLA cells; concentration 3.13e-5 M): 0.01293 and 0.02454 and 0.01076 and 0.01089 and 0.02171 and 0.002693
PRESTO-Tango response (fig. S1), single replicate (HTLA cells; concentration 6.25e-5 M): 0.01139 and 0.03821 and 0.01576 and 0.0127 and 0.01288 and 0.03538
PRESTO-Tango response (fig. S1), single replicate (HTLA cells; concentration 0.00025 M): 0.01585 and 0.06272 and 0.01054 and 0.02134 and 0.01844 and 0.04104
PRESTO-Tango response (fig. S1), single replicate (HTLA cells; concentration 0.0005 M): 0.01737 and 0.05973 and 0.009456 and 0.02137 and 0.0304 and 0.02084
Scratching bouts (each well represents individual mouse) (WT mice; 1 mM subcutaneous nape injection): 5 and 12 and 10 and 47
Scratching bouts (each well represents individual mouse) (WT mice; 10 mM subcutaneous nape injection): 2 and 30 and 18 and 13
Scratching bouts of individual animals (NP2-WT mice): 4 and 14 and 5 (2×) and 8 and 3 (2×) and 18 and 12 and 42
Calcium response of NP2-X4+ neurons (NP2-X4+ DRG neurons): strong calcium transients

Reference: publication PMC11645656, “MRGPRX4 mediates phospho-drug associated pruritus in a humanized mouse model” (Science translational medicine, 2024)
